The results in this text go back to ChEMBL document CHEMBL1152477, “Evaluation of substrate and inhibitor properties of a novel MDR modulator H17 towards transmembrane efflux pumps” (Eur J Med Chem, 2009).

The target in series [1] is T1, Multidrug resistance-associated protein 1 (Rattus norvegicus, UniProt Q8CG09). Description: Inhibition of MRP1/MRP2 in White Wistar rat ileum assessed as increase in drug uptake at 1 mM after 30 mins by HPLC analysis. The class given is tissue-based. Particulars: 0.5 h, 1000 µM.
T1 sequence (Q8CG09 whole entry): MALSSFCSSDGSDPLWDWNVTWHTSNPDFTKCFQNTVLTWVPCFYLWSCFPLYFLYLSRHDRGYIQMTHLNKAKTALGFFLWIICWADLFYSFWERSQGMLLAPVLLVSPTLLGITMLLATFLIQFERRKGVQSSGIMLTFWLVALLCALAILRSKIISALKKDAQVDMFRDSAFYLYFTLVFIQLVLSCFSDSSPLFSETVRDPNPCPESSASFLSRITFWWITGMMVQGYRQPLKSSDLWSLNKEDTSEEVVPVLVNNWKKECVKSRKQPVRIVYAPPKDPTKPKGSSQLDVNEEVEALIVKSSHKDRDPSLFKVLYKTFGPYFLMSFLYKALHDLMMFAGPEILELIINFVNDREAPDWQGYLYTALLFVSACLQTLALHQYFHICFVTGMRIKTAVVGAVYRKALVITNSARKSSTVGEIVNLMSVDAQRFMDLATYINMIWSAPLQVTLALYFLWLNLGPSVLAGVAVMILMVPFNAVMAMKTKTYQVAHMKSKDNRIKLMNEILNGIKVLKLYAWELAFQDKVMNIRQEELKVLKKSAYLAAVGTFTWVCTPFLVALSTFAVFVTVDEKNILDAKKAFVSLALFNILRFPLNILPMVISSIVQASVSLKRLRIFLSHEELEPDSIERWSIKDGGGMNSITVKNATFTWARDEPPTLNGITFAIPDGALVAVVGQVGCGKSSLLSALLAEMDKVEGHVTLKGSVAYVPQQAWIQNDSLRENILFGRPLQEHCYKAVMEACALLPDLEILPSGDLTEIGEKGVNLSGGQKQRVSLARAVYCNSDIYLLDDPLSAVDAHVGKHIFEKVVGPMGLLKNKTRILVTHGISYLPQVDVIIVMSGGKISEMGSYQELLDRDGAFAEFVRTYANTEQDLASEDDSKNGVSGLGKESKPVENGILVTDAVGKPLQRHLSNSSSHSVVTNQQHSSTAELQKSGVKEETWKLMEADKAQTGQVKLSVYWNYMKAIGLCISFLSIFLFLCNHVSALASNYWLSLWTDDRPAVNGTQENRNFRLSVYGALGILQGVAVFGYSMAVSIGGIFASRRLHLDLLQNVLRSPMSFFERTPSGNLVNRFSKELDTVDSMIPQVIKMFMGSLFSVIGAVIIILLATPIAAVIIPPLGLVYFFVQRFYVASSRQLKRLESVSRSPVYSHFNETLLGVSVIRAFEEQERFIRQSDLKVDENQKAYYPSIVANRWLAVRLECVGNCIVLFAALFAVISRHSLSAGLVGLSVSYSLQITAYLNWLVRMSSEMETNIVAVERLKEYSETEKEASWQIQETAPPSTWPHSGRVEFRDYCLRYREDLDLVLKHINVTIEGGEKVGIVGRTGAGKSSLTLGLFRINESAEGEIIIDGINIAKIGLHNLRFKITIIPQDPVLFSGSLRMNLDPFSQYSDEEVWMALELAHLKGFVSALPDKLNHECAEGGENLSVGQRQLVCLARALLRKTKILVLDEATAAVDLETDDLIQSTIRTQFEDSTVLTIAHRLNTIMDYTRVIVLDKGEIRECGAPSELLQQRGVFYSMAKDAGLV
Series [2] deals with T1, Multidrug resistance-associated protein 1. Description: Inhibition of MRP1/MRP2 in White Wistar rat jejunum assessed as increase in drug uptake at 1 mM after 30 mins by HPLC analysis. In kind it is tissue-based. Particulars: 0.5 h, 1000 µM.
Series [3] shares this target. Briefly: Inhibition of MRP1/MRP2 in White Wistar rat colon assessed as increase in drug uptake at 1 mM after 30 mins by HPLC analysis. Particulars: 0.5 h, 1000 µM.
The species entered for series [4] is Rattus norvegicus. Briefly: Inhibition of P-glycoprotein in White Wistar rat colon assessed as permeability at 30 uM after 30 mins by HPLC analysis.
The species named for series [5] is Rattus norvegicus. Description: Inhibition of P-glycoprotein in White Wistar rat jejunum assessed as permeability at 30 uM after 30 mins by HPLC analysis. In kind it is tissue-based.
The species entered for series [6] is Rattus norvegicus. Description: Inhibition of P-glycoprotein in White Wistar rat ileum assessed as permeability at 30 uM after 30 mins by HPLC analysis. The class given is tissue-based.

Structures are written as SMILES.

`COc1ccc2c(c1)c(CC(=O)O)c(C)n2C(=O)c1ccc(Cl)cc1` [INDOMETHACIN]: the figures for the Drug uptake in series [1], in series [2] and in series [3] were 13%, 24% and 13%, respectively.

Take `OCC12C3C4C1N(Cc1ccccc1)C1(CO)C(CO)(C4c4ccccc4)C(N3Cc3ccccc3)C1(CO)C2c1ccccc1` (stereo unspecified): the permeability worked out at 2.05 ×10⁻⁴ cm/s in series [4], 2.36 ×10⁻⁴ cm/s in series [5] and 2.4 ×10⁻⁴ cm/s in series [6].
